Source: the Kinase Knowledgebase extract (Sharma et al. 2016)

target: CDK2 (human) (UniProt P24941); experiment: Enzyme Assay

Structure (SMILES)	IC50
COc1ccc(NC(=O)c2ccc(C(=O)Nc3ccc4c(cnn4C)c3)s2)c(C)c1	≥ 40 µM
COc1ccc(NC(=O)c2ccc(C(=O)Nc3cccc(-c4cnco4)c3)s2)c(C)c1	≥ 40 µM
O=C(Nc1ccc(-n2cncn2)cc1)c1ccc(C(=O)Nc2nc3c(s2)CCCC3)s1	1 to 40 µM
COc1ccc(NC(=O)c2ccc(C(=O)Nc3ccc(N4CCNCC4)cc3)s2)c(C)c1	≥ 40 µM
COc1ccccc1NC(=O)c1ccc(C(=O)Nc2ccc(-n3cncn3)c(F)c2)s1	≥ 40 µM
COc1ccc(NC(=O)c2ccc(C(=O)Nc3ccc(-c4nc[nH]n4)c(F)c3)o2)c(C)c1	≤ 1 µM
COc1ccc(NC(=O)c2ccc(C(=O)Nc3ccc(N(C)C)cc3)s2)c(C)c1	≥ 40 µM
O=C(Nc1ccc(C(=O)Nc2ccc(-n3cncn3)cc2)o1)c1ccncc1	≥ 40 µM
COc1ccc(NC(=O)c2ccc(C(=O)Nc3ccc(-c4cnco4)cc3)s2)c(C)c1	≥ 40 µM
O=C(Nc1ccc(-n2cncn2)c(F)c1)c1ccc(C(=O)Nc2ccccc2Oc2cccnc2)s1	≥ 40 µM
CN1CCCC1CCNC(=O)c1ccc(C(=O)Nc2ccc(-n3cncn3)cc2)s1 (stereo not drawn)	≥ 40 µM
Cc1cc(CN(C)C)ccc1NC(=O)c1ccc(C(=O)Nc2ccc(-n3cncn3)c(F)c2)s1	1 to 40 µM
COC[C@H](C)NC(=O)c1ccc(C(=O)Nc2ccc(-n3cncn3)cc2)s1	≥ 40 µM
O=C(Nc1ccc(-n2cncn2)c(F)c1)c1ccc(C(=O)Nc2ccccc2N2CCOCC2)s1	≥ 40 µM
O=C(Nc1ccncc1)c1ccc(C(=O)Nc2ccc(-n3cncn3)cc2)o1	1 to 40 µM
COc1ccc(C(=O)Nc2ccc(C(=O)N3CCC(Oc4cnccn4)CC3)o2)cc1	≥ 40 µM
CN(C)CCNC(=O)c1ccc(C(=O)Nc2ccc(-n3cncn3)cc2)s1	≥ 40 µM
CNC(=O)c1ccc(C(=O)Nc2ccc(-n3cncn3)c(F)c2)o1	≥ 40 µM
O=C(NCCc1c[nH]cn1)c1ccc(C(=O)Nc2ccc(-n3cncn3)cc2)s1	≥ 40 µM
CC(CN(C)C)NC(=O)c1ccc(C(=O)Nc2ccc(-n3cncn3)cc2)s1 (stereo not drawn)	≥ 40 µM
COc1ccc(NC(=O)c2ccc(C(=O)Nc3ccc4ncccc4c3)s2)c(C)c1	≥ 40 µM

Structure (SMILES)	IC50
CC(C)[C@@H](CO)NC(=O)c1ccc(C(=O)Nc2ccc(-n3cncn3)cc2)s1	≥ 40 µM
COc1ccc(NC(=O)c2ccc(C(=O)Nc3ccc(-n4cncn4)c(F)c3)o2)c(C)c1	≤ 1 µM
O=C(Nc1ccc(-n2cncn2)c(F)c1)c1ccc(C(=O)Nc2ccccc2OC2CCCCC2)s1	≥ 40 µM
COc1ccc(NC(=O)c2ccc(C(=O)Nc3ccc(-c4ncn(C)n4)cc3)s2)c(C)c1	≥ 40 µM
COc1ccc(NC(=O)c2ccc(C(=O)Nc3ccc(-n4ccnc4)cc3)s2)c(C)c1	≥ 40 µM
O=C(Nc1ccc(-n2cncn2)c(F)c1)c1ccc(C(=O)N2CCOCC2)o1	≥ 40 µM
COc1ccc(NC(=O)c2ccc(C(=O)Nc3ccc(OCCN(C)C)cc3)s2)c(C)c1	≥ 40 µM
O=C(NC[C@@H]1CCCO1)c1ccc(C(=O)Nc2ccc(-n3cncn3)cc2)s1	≥ 40 µM
COc1ccc(NC(=O)c2ccc(C(=O)Nc3ccc(-n4cccn4)cc3)s2)c(C)c1	≥ 40 µM
Cc1ccccc1NC(=O)c1ccc(C(=O)Nc2ccc(-n3cncn3)cc2)o1	≤ 1 µM
O=C(Nc1ccc(-n2cncn2)cc1)c1ccc(C(=O)Nc2cc(-c3ccco3)n[nH]2)s1	≥ 40 µM
Cc1cc(CN2CCN(C)CC2)ccc1NC(=O)c1ccc(C(=O)Nc2ccc(-n3cncn3)c(F)c2)s1	≤ 1 µM
COc1ccc(NC(=O)c2ccc(C(=O)Nc3ccc(C#N)cc3)s2)c(C)c1	≥ 40 µM
Cc1cnc(CNC(=O)c2ccc(C(=O)Nc3ccc(-n4cncn4)cc3)s2)cn1	≥ 40 µM
O=C(Nc1ccc(-n2cncn2)c(F)c1)c1ccc(C(=O)Nc2ccccc2-c2ccccc2)s1	1 to 40 µM
COc1ccc(NC(=O)c2ccc(C(=O)Nc3ccc(N4CCCCC4)cc3)s2)c(C)c1	≥ 40 µM
COc1ccc(C(=O)Nc2ccc(C(=O)N3CCC(c4ccncc4)C3)o2)c(C)c1 (stereo not drawn)	≥ 40 µM
COc1ccc(C(=O)Nc2ccc(C(=O)N3CCC(c4ccccn4)C3)o2)c(C)c1 (stereo not drawn)	≥ 40 µM
Cc1cc(CNC(=O)c2ccc(C(=O)Nc3ccc(-n4cncn4)cc3)s2)no1	≥ 40 µM
COc1ccc(NC(=O)c2ccc(C(=O)Nc3ccc(-n4cncn4)cc3)s2)cc1OC	≥ 40 µM

Further lines, results first:

IC50	Structure (SMILES)
1 to 40 µM	COc1ccc(NC(=O)c2ccc(C(=O)Nc3ccc(-n4cncn4)cc3)s2)c(C(=O)O)c1
≥ 40 µM	COc1ccccc1NC(=O)c1ccc(C(=O)Nc2ccc(-n3cncn3)cc2)s1
1 to 40 µM	O=C(Nc1ccc(Cl)cc1)c1ccc(C(=O)Nc2ccc(-n3cncn3)cc2)s1
≤ 1 µM	Cc1ccccc1C(=O)Nc1ccc(C(=O)Nc2ccc(-n3cncn3)cc2)s1
≥ 40 µM	O=C(NCc1cccnc1)c1ccc(C(=O)Nc2ccc(-n3cncn3)cc2)s1
≤ 1 µM	Cc1cc(CN2CCN(C)CC2)ccc1NC(=O)c1ccc(C(=O)Nc2ccc(-n3cncn3)cc2)s1
≥ 40 µM	O=C(Nc1ccc(-n2cncn2)cc1)c1ccc(C(=O)NC2CCNCC2)s1
≥ 40 µM	CN1CCN(c2ccccc2NC(=O)c2ccc(C(=O)Nc3ccc(-n4cncn4)c(F)c3)s2)CC1
≥ 40 µM	O=C(NCCN1CCCCC1)c1ccc(C(=O)Nc2ccc(-n3cncn3)cc2)s1
≥ 40 µM	O=C(NCc1ccncc1)c1ccc(C(=O)Nc2ccc(-n3cncn3)cc2)s1
≥ 40 µM	O=C(Nc1ccc(C(=O)Nc2ccc(-n3cncn3)cc2)s1)c1ccncc1
1 to 40 µM	O=C(Nc1ccc(-n2cncn2)cc1)c1ccc(C(=O)N2CCc3ccccc3C2)s1
≥ 40 µM	O=C(NCc1nc2ccccc2[nH]1)c1ccc(C(=O)Nc2ccc(-n3cncn3)cc2)s1
≥ 40 µM	O=C(NCCN1CCNC1=O)c1ccc(C(=O)Nc2ccc(-n3cncn3)cc2)s1
≥ 40 µM	O=C(Nc1ccc(-n2cncn2)cc1)c1ccc(C(=O)Nc2ccccc2Cl)s1
1 to 40 µM	CC(=O)N1CCC(NC(=O)c2ccc(C(=O)Nc3ccc(-n4cncn4)cc3)s2)CC1
≥ 40 µM	Cn1cnc(CCNC(=O)c2ccc(C(=O)Nc3ccc(-n4cncn4)cc3)s2)c1
≥ 40 µM	O=C(Nc1ccccc1)c1ccc(C(=O)Nc2ccc(-n3cncn3)cc2)s1
≥ 40 µM	O=C(NC[C@H](O)c1ccccc1)c1ccc(C(=O)Nc2ccc(-n3cncn3)cc2)s1

IC50	Structure (SMILES)
≥ 40 µM	O=C(Nc1ccc(-n2cncn2)cc1)c1ccc(C(=O)NC2CCC2)s1
≤ 1 µM	Cc1cc(CN2CCOCC2)ccc1NC(=O)c1ccc(C(=O)Nc2ccc(-n3cncn3)cc2)s1
≥ 40 µM	CC(C)NC(=O)c1ccc(C(=O)Nc2ccc(-n3cncn3)cc2)s1
≥ 40 µM	COc1cccc(C2CCN(C(=O)c3ccc(C(=O)Nc4ccc(-n5cncn5)cc4)s3)C2)c1 (stereo not drawn)
≥ 40 µM	O=C(Nc1ccc(-n2cncn2)cc1)c1ccc(C(=O)NC2Cc3ccccc3C2)s1
≥ 40 µM	O=C(NCC1CCCCC1)c1ccc(C(=O)Nc2ccc(-n3cncn3)cc2)s1
≤ 1 µM	Cc1cc(OCCN2CCN(C)CC2)ccc1NC(=O)c1ccc(C(=O)Nc2ccc(-n3cncn3)cc2)s1
≤ 1 µM	Cc1cc(N2CCOCC2)ccc1NC(=O)c1ccc(C(=O)Nc2ccc(-n3cncn3)cc2)s1
≥ 40 µM	COc1cccc(NC(=O)c2ccc(C(=O)Nc3ccc(-n4cncn4)cc3)s2)c1
≥ 40 µM	O=C(Nc1ccc(-n2cncn2)cc1)c1ccc(C(=O)Nc2cc(F)ccc2F)s1
≥ 40 µM	Cc1ccnc(NC(=O)c2ccc(C(=O)Nc3ccc(-n4cncn4)cc3)s2)c1
≥ 40 µM	CN1CCC(NC(=O)c2ccc(C(=O)Nc3ccc(-n4cncn4)cc3)s2)CC1
≥ 40 µM	O=C(Nc1ccc(-n2cncn2)cc1)c1ccc(C(=O)N2CCN(c3ccccc3)CC2)s1
1 to 40 µM	O=C(Nc1ccc(-n2cncn2)cc1)c1ccc(C(=O)Nc2cccc(Cl)c2)s1
≥ 40 µM	Cc1cccc(NC(=O)c2ccc(C(=O)Nc3ccc(-n4cncn4)cc3)s2)n1
≥ 40 µM	O=C(Nc1ccc(-n2cncn2)cc1)c1ccc(C(=O)Nc2ccccn2)s1
≥ 40 µM	O=C(Nc1ccc(-n2cncn2)cc1)c1ccc(C(=O)NC2CC2)s1
≥ 40 µM	O=C(Nc1ccc(-n2cncn2)cc1)c1ccc(C(=O)N2CCCCC2)s1
